# Results: US9879003B2, “Host targeted inhibitors of dengue virus and other viruses” (priority 2012, dated 2018)
# “Also recorded” adds a separate entry of the source. Read-outs that look alike come from different tables or passages of the source.
# Legend:
# [1] = tested on: DENV2 New Guinea C (DENV2-NGC); assay: Viral yield reduction assay, DENV2-NGC in Huh7 cells, titration by focus forming assay (FFA); type: cell-based, Dengue virus
# [2] = tested on: vaccinia virus; type: cell-based
# [3] = tested on: Vero
# [4] = tested on: encephalomyocarditis virus (EMCV) IRES; type: cell-based
# [5] = tested on: Ebola glycoprotein (EBOV); type: cell-based, Ebola virus
# [6] = tested on: Hela
# [7] = tested on: herpes simplex virus 1 (HSV-1); type: cell-based
# [8] = tested on: Junin virus; type: cell-based
# [9] = tested on: Huh7 cells; assay: CellTiter-Glo luminescent cell viability assay (cytotoxicity); type: cell-based; details: 20 μM, the highest concentration tested
# Procedure: As a positive control for cytotoxicity, some wells were supplemented with 0.1% saponin. The plates were incubated for 24 hours at 37° C., and the cell cytotoxicity was measured following the instructions of the CellTiter-Glo Luminescent cell viability assay (Promega G7570).
# [10] = tested on: DENV4 TVP360; assay: Yield reduction assay, DENV4-TVP360 in Huh7 cells, FFA in Vero cells; details: Huh7 MOI 1, FFA in Vero cells
# [11] = tested on: human cytomegalovirus (HCMV); type: cell-based
# [12] = tested on: 3T3
# [13] = tested on: poliovirus Type 1 (PV1); type: cell-based
# [14] = tested on: DENV2 virus-like particles (VLPs); assay: DENV virus-like particle (VLP) expression and secretion, Huh7 cells, Western blot; type: cell-based, Dengue virus; details: 3 μM, supernatants 24 hours post-treatment
# Procedure: The plasmid used for virus-like particles (VLP) production was provided by Stephen Harrison. Briefly, the codon optimized sequence of DENV2-FGA/02 prM-E (Wang et al., PLoS ONE (2009) 4:e8325) was introduced in the pCDNA3.1 vector. To produce VLPs, Huh7 cells were transfected with pCDNA3.1-D2.VLP using Lipofectamine 2000 (Life Technologies 11668-019) according to the manufacturer's instructions. […] The supernatants were collected at 24 hours post-treatment and precipitated for 3 hours at 4° C. by the addition of 0.075% of PEG 8000. The VLPs were pelleted by centrifugation at 10,000 g for 15 min at 4° C. The pellet was suspended in 200 μl of 1×TNE (10 mM Tris-HCl pH 7.5, 2.5 mM EDTA, 50 mM NaCl), loaded over a sucrose cushion (800 μl of 12.5% sucrose in 1×TNE), and centrifuged at 100,000 g for 2 h at 4° C. The supernatants were discarded, and the purified VLPs were suspended in 50 μl of 1×TNE. 25 μl of purified VLPs were analyzed for DENV2 E protein expression by Western blotting using 4G2 antibody. An equal amount of purified VLPs was loaded on a SDS-PAGE and submitted to Coomassie staining to control for equal loading of the VLPs-enriched supernatants. Steady state expression of DENV2 E protein in the cell lysates was analyzed by Western blotting using 4G2 antibody.
# [15] = tested on: DENV2 virus; assay: DENV2 viral production time course in Huh7 cells (FFU/ml, RTqPCR, Western blot); type: cell-based, Dengue virus; details: 4 μM
# [16] = tested on: DENV2-Fluc(WT) replicon RNA; assay: DENV2-Fluc(WT) replicon translation, luciferase, Huh7 cells; type: cell-based, Dengue virus; details: 6 hours post-electroporation; QL compounds 2 μM, cycloheximide 30 μg/mL
# [17] = tested on: DENV3 THD3; assay: Yield reduction assay, DENV3-THD3 in Huh7 cells, FFA in Vero cells; details: Huh7 MOI 1, FFA in Vero cells
# [18] = tested on: recombinant viral particles (RVP) with dengue structural proteins and West Nile virus reporter RNA; assay: Single-cycle reporter viral particle (RVP) assay, Renilla luciferase, Huh7 cells; type: cell-based; details: entry and translation of subgenomic replicon RNA
# [19] = tested on: Rift Valley fever virus (RVFV); type: cell-based
# [20] = tested on: DENV2 replicon; type: cell-based, Dengue virus; details: 2 μM added at 24 hours, read at 72 hours post-electroporation
# [21] = tested on: VSV pseudotyped with Ebola glycoprotein (EboV); type: cell-based, vesicular stomatitis virus
# [22] = tested on: vesicular stomatitis virus (VSV); type: cell-based
# [23] = tested on: 293
# [24] = tested on: influenza virus; type: cell-based
# [25] = tested on: Lassa fever virus (LASV); type: cell-based
# [26] = tested on: Kunjin virus; assay: Kunjin virus yield reduction in Huh7 cells, plaque assay in BHK21 cells; type: cell-based; details: 2 μM
# [27] = tested on: Marburg virus (MARV); type: cell-based
# [28] = tested on: DENV1 WP74; assay: Yield reduction assay, DENV1-WP74 in Huh7 cells, FFA in Vero cells; details: Huh7 MOI 1, FFA in Vero cells
# [29] = tested on: poliovirus; type: cell-based
# [30] = tested on: VSV; type: cell-based, vesicular stomatitis virus
# [31] = tested on: DENV2-NGC genomic RNA; assay: Time course of intracellular DENV genomic RNA by qRT-PCR and in situ hybridization; details: 2 μM, MOI 1, normalized to GAPDH
# [32] = tested on: DENV2-Fluc (GDV) replicon RNA; assay: DENV2-Fluc(GDV) mutant replicon translation, luciferase, Huh7 cells; type: cell-based, Dengue virus; details: 6 hours post-electroporation; QL compounds 2 μM, cycloheximide 30 μg/mL
# [33] = tested on: Venezuelan equine encephalitis virus (VEEV); type: cell-based
# [34] = tested on: Japanese Encephalitis virus (JEV); type: cell-based
# [35] = tested on: VSV pseudotyped with rabies virus glycoprotein (RABV); type: cell-based, vesicular stomatitis virus
# [36] = tested on: Junin virus (JUNV); type: cell-based
# [37] = tested on: BHK21
# [38] = target: DENV RNA-dependent polymerase (Dengue virus type 2, UniProt P14340); details: Wu et al. 2002; cited from earlier work
# [39] = tested on: DENV2 virus; assay: QL-XII-47 biotin test, DENV2 in Huh7 cells, titration in FFU/ml; type: cell-based, Dengue virus; details: treated for 24 or 48 h
smiles,measurement,setting,value
"C=CC(=O)N1CCC[C@@H](n2nc(-c3ccc(Oc4ccccc4)cc3)c3c(N)ncnc32)C1 [PCI-32765, reference compound]",effect on DENV yield,"[1]; added 1 hour post-infection, MOI 1, FFA at 24 h post-infection",not inhibited; also recorded: no effect
C=CC(=O)N1CCc2ccc(-n3c(=O)ccc4cnc5ccc(-c6cnn(C)c6)cc5c43)cc21 [QL-XII-47],activity against virus,[2],no activity
same,cytotoxicity,[3],not observed
same,EMCV IRES-dependent translation,[4],reduces translation; also recorded: inhibited
same,activity against strain,"[1]; DENV2 NGC, Huh7 MOI 1, FFA in Vero cells",potent activity
same,EC90,"[1]; Dengue virus, DENV2, Huh-7",0.4 µM
same,decrease in DENV2 New Guinea C (DENV2-NGC) yield / drop in viral titer,[1]; at single-digit micromolar concentrations,> 3 log10 unit
same,inhibition of DENV after pretreatment of cells,[1]; cells pretreated for 6 hours and washed prior to infection,potent inhibition
same,time of addition giving maximal anti-DENV effect,[1]; time-of-addition experiment,0-3 hours post-infection
same,inhibitory activity,[5],inhibitory activity
same,cytotoxicity,[6],single-digit micromolar cytotoxicity
same,inhibition of infection and plaque formation,[7],inhibits
same,plaques detected,[7],no plaques were detected
same,inhibition of cytopathic effects,[8],modest inhibitor
same,cytotoxicity,[9],no cytotoxicity; also recorded: not observed
same,activity against strain,[10],potent activity
same,inhibition of reporter HCMV infection,[11],inhibits
same,cytotoxicity,[12],not observed
same,inhibition of PV1,[13],inhibited
same,yield of virus-like particles (VLPs),[14],did not inhibit
same,expression of DENV proteins NS3 and core (Western blot),[15],reduced steady-state expression
same,"DENV2 viral production (FFU/ml, viral count)",[15]; after about 12 hours of infection,inhibited
same,luciferase activity (translation of input RNA),[16],Reduced luciferase activity
same,activity against strain,[17],potent activity
same,inhibition in single-cycle reporter virus assay,[18],potent inhibitory activity
same,inhibitory activity,[19],inhibitory activity
same,activity on electroporated subgenomic reporter replicon,[20],does not have activity
same,inhibition of infection,[21],inhibits infection
same,inhibition of VSV,[22],inhibited
same,cytotoxicity,[23],single-digit micromolar cytotoxicity
same,activity against virus,[24],no activity
same,inhibitory activity,[25],inhibitory activity
same,reduction in Kunjin virus yield,[26],greater than 10 fold
same,inhibitory activity,[27],inhibitory activity
same,activity against strain,[28],potent activity
same,inhibition of infection and viral gene expression,[29],inhibits
same,inhibition of infection,[30],inhibits infection
same,DENV genomic RNA copy number over time,[31],relatively unchanged copy number
same,luciferase activity (translation of input RNA),[32],Reduced luciferase activity
same,inhibitory activity,[33],inhibitory activity
same,inhibition of cytopathic effects,[34],modest inhibitor
same,inhibition of infection,[35],inhibits infection
same,inhibitory activity,[36],inhibitory activity
same,cytotoxicity,[37],not observed
C[C@@]1(O)[C@H](O)[C@@H](CO)O[C@H]1n1ccc2c(N)ncnc21 [Compound 7-DMA],EC50,[38],15 µM
CN(C/C=C/C(=O)N1CCc2ccc(-n3c(=O)ccc4cnc5ccc(-c6cnn(C)c6)cc5c43)cc21)CCNC(=O)NCCOCCOCCOCCNC(=O)CCCC1SCC2NC(=O)NC21 (stereo not drawn) [QL-XII-47-biotin],inhibitory activity against dengue virus,[39],significantly reduced inhibitory activity
"Nc1nc2c(ncn2COCCO)c(=O)[nH]1 [acyclovir, reference compound]",plaques detected,[7]; 8 μM,no plaques were detected
C=CC(=O)Nc1cc(-n2c(=O)ccc3cnc4ccc(-c5cnn(C)c5)cc4c32)ccc1C [QL-XII-56],EMCV IRES-dependent translation,[4],inhibited
same,inhibitory activity,[5],inhibitory activity
same,inhibition of PV1,[13],inhibited
same,luciferase activity (translation of input RNA),[16],Reduced luciferase activity
same,inhibitory activity,[19],inhibitory activity
same,inhibition of VSV,[22],inhibited
same,inhibitory activity,[25],inhibitory activity
same,inhibitory activity,[27],inhibitory activity
same,luciferase activity (translation of input RNA),[32],Reduced luciferase activity
same,inhibitory activity,[33],inhibitory activity
same,inhibitory activity,[36],inhibitory activity
"C[C@@H]1C[C@@H]([C@H](O)CC2CC(=O)NC(=O)C2)C(=O)[C@@H](C)C1 [CHX, cycloheximide, reference compound]",luciferase activity (translation of input RNA),[16],Reduced luciferase activity
same,luciferase activity (translation of input RNA),[32],Reduced luciferase activity
